Assay results reported in ChEMBL document CHEMBL1143306, “3-amido-4-anilinoquinolines as CSF-1R kinase inhibitors 2: Optimization of the PK profile” (Bioorg Med Chem Lett, 2009).
Converted amounts (≈) assume the structure as drawn.

What was measured:
[1] = Clearance in rat at 3 mg/kg, iv and 10 mg/kg, po; assay type: ADME, organism-based; conditions: in vivo
[2] = Volume of distribution at steady state in rat at 3 mg/kg, iv and 10 mg/kg, po; assay type: ADME, organism-based; conditions: in vivo, read-out: Vdss
Mus musculus [3] = experiment: Inhibition of phosphorylated CSF1R level in 3T3/CSF1R mutant cells xenografted nude mouse at 25 mg/kg, po after 2 hrs by ELISA; assay type: functional
[4] = Half life in rat at 3 mg/kg, iv and 10 mg/kg, po; assay type: ADME, organism-based; conditions: in vivo
Mus musculus [5] = experiment: Inhibition of phosphorylated CSF1R level in 3T3/CSF1R mutant cells xenografted nude mouse at 25 mg/kg, po after 6 hrs by ELISA; assay type: functional
[6] = Bioavailability in rat at 3 mg/kg, iv and 10 mg/kg, po; assay type: ADME, organism-based; conditions: in vivo
[7] = Aqueous solubility of the compound; assay type: physicochemical; conditions: buffer
NIH3T3 = experiment: Antiproliferative activity against mouse 3T3 cells expressing human CSF1R after 72 hrs by Celltiter assay; assay type: functional
[8] = molecular target: Macrophage colony-stimulating factor 1 receptor (Homo sapiens, UniProt P07333); experiment: Inhibition of CSF1R
[9] = Plasma protein binding assessed as percentage unbound

Sequence of Macrophage colony-stimulating factor 1 receptor (P07333 whole entry): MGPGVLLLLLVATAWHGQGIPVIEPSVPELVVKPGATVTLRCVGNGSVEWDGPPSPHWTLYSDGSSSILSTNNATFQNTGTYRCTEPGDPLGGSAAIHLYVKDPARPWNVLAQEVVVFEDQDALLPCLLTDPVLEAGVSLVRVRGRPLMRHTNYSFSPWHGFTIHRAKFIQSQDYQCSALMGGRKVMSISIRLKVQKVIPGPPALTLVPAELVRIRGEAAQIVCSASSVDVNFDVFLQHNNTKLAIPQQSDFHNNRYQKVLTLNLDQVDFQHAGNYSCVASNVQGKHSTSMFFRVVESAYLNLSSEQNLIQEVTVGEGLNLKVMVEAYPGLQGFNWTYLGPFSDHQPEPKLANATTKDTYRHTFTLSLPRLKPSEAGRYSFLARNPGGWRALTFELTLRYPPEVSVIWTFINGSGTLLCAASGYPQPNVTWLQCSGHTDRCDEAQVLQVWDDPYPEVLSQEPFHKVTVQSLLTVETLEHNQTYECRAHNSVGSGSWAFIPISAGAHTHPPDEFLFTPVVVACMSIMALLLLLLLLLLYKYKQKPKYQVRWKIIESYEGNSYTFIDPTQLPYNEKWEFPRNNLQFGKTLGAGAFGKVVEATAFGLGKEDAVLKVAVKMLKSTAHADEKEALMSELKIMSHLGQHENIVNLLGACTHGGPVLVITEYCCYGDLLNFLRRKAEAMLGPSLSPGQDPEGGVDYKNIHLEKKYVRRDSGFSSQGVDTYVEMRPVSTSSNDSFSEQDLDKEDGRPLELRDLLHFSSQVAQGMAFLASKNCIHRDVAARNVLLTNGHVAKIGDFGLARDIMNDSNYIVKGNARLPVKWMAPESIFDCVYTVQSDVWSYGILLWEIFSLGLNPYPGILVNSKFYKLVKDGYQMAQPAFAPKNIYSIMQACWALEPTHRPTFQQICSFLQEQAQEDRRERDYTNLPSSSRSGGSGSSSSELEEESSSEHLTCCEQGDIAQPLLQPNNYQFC

SMILES	clearance [1] [mL/min/kg]	Vd [2] [L/kg]	inhibition in vivo at 25 mg/kg (Mus musculus [3]) [%]	half-life [4] [min]	inhibition in vivo at 25 mg/kg (Mus musculus [5]) [%]	bioavailability [6] [%]	solubility [7] [µM]	Activity (NIH3T3) [µM]	IC50 [8] [nM]	fraction unbound [9]
CCOc1cc2ncc(C(N)=O)c(Nc3ccc(Cl)c(Cl)c3)c2cc1N1CCN(C)CC1	47	3.7	80	72	40	42	3 (≈ 1.42 µg/mL)	0.06		
CCOc1cc2ncc(C(N)=O)c(Nc3ccc(F)cc3F)c2cc1N1CCN(C(C)C)CC1			70		50		> 1000	0.17		
CN1CCN(c2ccc3ncc(C(N)=O)c(Nc4ccc(Cl)cc4Cl)c3c2)CC1							180 (≈ 77.5 µg/mL)	8.9	129	0.018
COc1cc2ncc(C(N)=O)c(Nc3ccc(F)cc3F)c2cc1OC	23	0.9		36		100		0.4		
COc1cc2ncc(C(N)=O)c(Nc3ccc(Cl)c(Cl)c3)c2cc1N1CCN(C)CC1	50	3.8		72				0.38		0.036
CCOc1cc2ncc(C(N)=O)c(Nc3cccc(Cl)c3Cl)c2cc1N1CCCN(C(C)C)CC1			90		75		420 (≈ 217 µg/mL)	0.02		0.049
CCOc1cc2ncc(C(N)=O)c(Nc3ccc(F)cc3F)c2cc1N1CCCN(C)CC1	32	16	90	396	55	16	530 (≈ 241 µg/mL)			0.31
CCOc1cc2ncc(C(N)=O)c(Nc3ccc(F)cc3F)c2cc1N1CCN(C2CC2)CC1	21	0.6	70	54	10	34	150 (≈ 70.1 µg/mL)	0.66		
CCOc1cc2ncc(C(N)=O)c(Nc3cc(F)ccc3F)c2cc1N1CCN(C)CC1	28	2.9	75	78	45	33	71 (≈ 31.3 µg/mL)	0.11		0.073
CCOc1cc2ncc(C(N)=O)c(Nc3ccc(C)cc3F)c2cc1N1CCN(C)CC1	10	1.8		138	60	46	54 (≈ 23.6 µg/mL)			
CCOc1cc2ncc(C(N)=O)c(Nc3ccc(F)cc3F)c2cc1N1CCOCC1	36	1.1		36		25	64 (≈ 27.4 µg/mL)	0.48		0.084
COc1cc2c(Nc3ccc(F)cc3F)c(C(N)=O)cnc2cc1N1CCN(C)CC1							> 1000	0.72	11	
CC(C)Oc1cc2ncc(C(N)=O)c(Nc3cccc(Cl)c3F)c2cc1N1CCN(C)CC1							790 (≈ 373 µg/mL)	0.21		0.049
CCOc1cc2ncc(C(N)=O)c(Nc3ccc(F)cc3F)c2cc1N1CCCN(C2CC2)CC1							100 (≈ 48.2 µg/mL)	0.27		0.022
CCOc1cc2ncc(C(N)=O)c(Nc3ccc(F)c(Cl)c3)c2cc1N1CCN(C)CC1	53	9.3	70	132	55	55		0.13		0.034
CC(C)Oc1cc2ncc(C(N)=O)c(Nc3ccc(Cl)c(Cl)c3)c2cc1N1CCN(C)CC1							250 (≈ 122 µg/mL)	0.12		0.01
CCOc1cc2ncc(C(N)=O)c(Nc3cc(C)ccc3F)c2cc1N1CCN(C)CC1	28	5.3	90	138	80	88	66 (≈ 28.9 µg/mL)	0.09		
CCOc1cc2ncc(C(N)=O)c(Nc3cccc(Cl)c3Cl)c2cc1N1CCCN(C)CC1	63	40	90	516	95	100	130 (≈ 63.5 µg/mL)	0.05		0.019
